Measured values reported in PubChem BioAssay (NCI).
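Following 48 hours of exposure in 96-well plates, responses at five concentrations were used to interpolate endpoints linearly. GI50: concentration for 50% inhibition of growth. TGI: total growth inhibition.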

Columns and labels:
Assay in all cases: inhibition of tumour cell growth, NCI panel, 48 h
[1] = system: 786-0 renal
[2] = system: A498 renal
[3] = system: A549 NSCLC
[4] = system: ACHN renal
[5] = system: BT-549 breast
[6] = system: CAKI-1 renal
[7] = system: CCRF-CEM leukemia
[8] = system: COLO 205 colon
[9] = system: DU-145 prostate
[10] = system: EKVX NSCLC
[11] = system: HCC-2998 colon
[12] = system: HCT-116 colon
[13] = system: HCT-15 colon
[14] = system: HOP-62 NSCLC
[15] = system: HOP-92 NSCLC
[16] = system: HS 578T breast
[17] = system: HT29 colon
[18] = system: IGROV1 ovarian
[19] = system: K-562 leukemia
[20] = system: KM12 colon
[21] = system: LOX IMVI melanoma
[22] = system: M14 melanoma
[23] = system: MALME-3M melanoma
[24] = system: MCF7 breast
[25] = system: MDA-MB-231 breast
[26] = system: MDA-MB-435
[27] = system: MOLT-4 leukemia
[28] = system: NCI-H226 lung
[29] = system: NCI-H23 lung
[30] = system: NCI-H460 lung
[31] = system: NCI-H522 lung
[32] = system: NCI/ADR-RES ovarian
[33] = system: OVCAR-3 ovarian
[34] = system: OVCAR-4 ovarian
[35] = system: OVCAR-5 ovarian
[36] = system: OVCAR-8 ovarian
[37] = system: PC-3 prostate
[38] = system: RPMI-8226 leukemia
[39] = system: RXF 393 renal
[40] = system: SF-268 CNS
[41] = system: SF-295 CNS
[42] = system: SF-539 CNS
[43] = system: SK-MEL-2 melanoma
[44] = system: SK-MEL-28 melanoma
[45] = system: SK-MEL-5 melanoma
[46] = system: SK-OV-3 ovarian
[47] = system: SN12C renal
[48] = system: SNB-19 CNS
[49] = system: SNB-75 CNS
[50] = system: SR leukemia
[51] = system: SW-620 colon
[52] = system: T-47D breast
[53] = system: TK-10 renal
[54] = system: U251 CNS
[55] = system: UACC-257 melanoma
[56] = system: UACC-62 melanoma
[57] = system: UO-31 renal

With `Nc1n[nH]c2cccc(C#Cc3cccc(C(=O)Nc4cc(CN5CCOCC5)cc(C(F)(F)F)c4)c3)c12` the GI50 [1] was 3.97 µM, the TGI [1] was 15 µM and the GI50 [2] was 1.75 µM. It also gave a TGI [2] of 9.53 µM, a GI50 [3] of 5.32 µM and a TGI [3] of 19.7 µM. The GI50 [4] was 3.06 µM, the TGI [4] was 11.8 µM and the GI50 [5] was 4.33 µM. The TGI [5] was 18.8 µM, the GI50 [6] was 5.11 µM and the TGI [6] was 19.4 µM. For the same compound, the GI50 [7] was 3.68 µM, the TGI [7] was 20.3 µM and the GI50 [8] was 2.7 µM. It also gave a TGI [8] of 11.1 µM, a GI50 [9] of 9.82 µM and a TGI [9] of 23.8 µM. It also gave a GI50 [10] of 5.58 µM, a TGI [10] of 19.9 µM and a GI50 [11] of 3.3 µM. The TGI [11] was 12.2 µM, the GI50 [12] was 2 µM and the TGI [12] was 11.1 µM. It also gave a GI50 [13] of 3.57 µM, a TGI [13] of 15.2 µM and a GI50 [14] of 4.5 µM. The TGI [14] was 18.1 µM, the GI50 [15] was 2.78 µM and the TGI [15] was 9.61 µM. For the same compound, the GI50 [16] was 2.75 µM, the TGI [16] was 34.1 µM and the GI50 [17] was 3.13 µM. It also gave a TGI [17] of 16.2 µM, a GI50 [18] of 3.23 µM and a TGI [18] of 11.7 µM. The GI50 [19] was 0.0651 µM, the TGI [19] was 2.41 µM and the GI50 [20] was 3.43 µM. The TGI [20] was 14.7 µM, the GI50 [21] was 1.87 µM and the TGI [21] was 5.63 µM. It also gave a GI50 [22] of 2.13 µM, a TGI [22] of 8.32 µM and a GI50 [23] of 1.63 µM. It also gave a TGI [23] of 9.88 µM, a GI50 [24] of 3.28 µM and a TGI [24] of 15.6 µM. It also gave a GI50 [25] of 1.65 µM, a TGI [25] of 6.8 µM and a GI50 [26] of 3.46 µM. For the same compound, the TGI [26] was 15.2 µM, the GI50 [27] was 2.76 µM and the TGI [27] was 13.3 µM. The GI50 [28] was 1.72 µM, the TGI [28] was 9.68 µM and the GI50 [29] was 3.56 µM. For the same compound, the TGI [29] was 18.8 µM, the GI50 [30] was 4.11 µM and the TGI [30] was 16.9 µM. The GI50 [31] was 3.62 µM, the TGI [31] was 16.2 µM and the GI50 [32] was 4.59 µM. For the same compound, the TGI [32] was 23.3 µM, the GI50 [33] was 7.41 µM and the TGI [33] was 31.3 µM. It also gave a GI50 [34] of 5.8 µM, a TGI [34] of 23.1 µM and a GI50 [35] of 3.37 µM. For the same compound, the TGI [35] was 25.7 µM, the GI50 [36] was 4.63 µM and the TGI [36] was 20.6 µM. It also gave a GI50 [37] of 4.39 µM, a TGI [37] of 19 µM and a GI50 [38] of 3.19 µM. For the same compound, the TGI [38] was 27.3 µM, the GI50 [39] was 2.21 µM and the TGI [39] was 7.92 µM. The GI50 [40] was 5.66 µM, the TGI [40] was 22.1 µM and the GI50 [41] was 3.46 µM. For the same compound, the TGI [41] was 14.2 µM, the GI50 [42] was 2.4 µM and the TGI [42] was 12 µM. The GI50 [43] was 2.62 µM, the TGI [43] was 10.6 µM and the GI50 [44] was 2.99 µM. For the same compound, the TGI [44] was 12.1 µM, the GI50 [45] was 4.34 µM and the TGI [45] was 16 µM. It also gave a GI50 [46] of 15.5 µM, a TGI [46] of 34.8 µM and a GI50 [47] of 3.71 µM. It also gave a TGI [47] of 16.4 µM, a GI50 [48] of 5.23 µM and a TGI [48] of 20.3 µM. It also gave a GI50 [49] of 5.51 µM, a TGI [49] of 19.3 µM and a GI50 [50] of 2.69 µM. The TGI [50] was 22.9 µM, the GI50 [51] was 4.59 µM and the TGI [51] was 24.3 µM. The GI50 [52] was 2.23 µM, the TGI [52] was 10.2 µM and the GI50 [53] was 11.4 µM. The TGI [53] was 27.5 µM, the GI50 [54] was 5.57 µM and the TGI [54] was 19.2 µM. The GI50 [55] was 4.63 µM, the TGI [55] was 18.1 µM and the GI50 [56] was 1.99 µM. The TGI [56] was 8.34 µM, the GI50 [57] was 2.03 µM and the TGI [57] was 11.1 µM.
